Data from patent publication US20240301023A1 (priority 2020, published 2024).
Like-named read-outs stand apart in the source and are kept apart here. Square brackets hold non-standard residues; d marks the D form. Peptide text beside a SMILES is read from it. Phe(4-NO2) = N[C@@H](Cc1ccc([N+](=O)[O-])cc1)C(=O)O; Phe(4-Cl) = N[C@@H](Cc1ccc(Cl)cc1)C(=O)O; NMeR = CN[C@@H](CCCNC(=N)N)C(=O)O; Aoc = NCCCCCCCC(=O)O; Sar = CNCC(=O)O

Key:
[1] = system: Freund's Complete Adjuvant model of inflammatory nociception; conditions: rat, in vivo
KOPr = KOPr (Homo sapiens, UniProt P41145); format: cell-based
KOPr, sequence (P41145 whole entry): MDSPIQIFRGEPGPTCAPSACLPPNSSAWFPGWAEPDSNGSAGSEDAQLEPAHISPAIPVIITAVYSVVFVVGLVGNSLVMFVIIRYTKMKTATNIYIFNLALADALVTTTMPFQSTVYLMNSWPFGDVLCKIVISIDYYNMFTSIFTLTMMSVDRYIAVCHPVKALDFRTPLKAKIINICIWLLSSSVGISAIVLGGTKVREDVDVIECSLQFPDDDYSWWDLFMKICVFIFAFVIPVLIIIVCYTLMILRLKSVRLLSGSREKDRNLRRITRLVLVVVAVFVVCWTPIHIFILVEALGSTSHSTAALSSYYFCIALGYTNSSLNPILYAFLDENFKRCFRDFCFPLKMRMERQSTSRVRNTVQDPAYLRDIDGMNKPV

KOR [2] = target: T1, KOR (Homo sapiens, UniProt P41145); test: cell-based; format: cell-based
T1 sequence (P41145 whole entry): as above

KOR [3] = target: T1, KOR; test: biochemical; format: binding
[4] = Pharmacokinetic parameters after i.v. administration in rats; format: in vivo; conditions: rat; for half-life / clearance / Vd: iv, dose 0.3 mg/kg (SEQ ID NO. 19), 1 mg/kg (SEQ ID NO. 24); for clearance: read-out: CLtotal; for Vd: read-out: Vdss; for opioid-like adverse effects (e.g. respiratory depression, sedation): 0.3 mg/kg (SEQ ID NO 19), 1 mg/kg (SEQ ID NO 24)
From the text: Methods are as previously reported (Hill et al., ACS Med. Chem. Lett. 2014, 5(10), 1148-51; Lohman et al., Chem. Commun. (Camb), 2019, 55(89), 13362-13365; Neilsen et al., Org. Lett., 2012, 14(22), 5720-3; Neilsen et al, Chembiochem, 2015, 16(16), 2289-93; Justyna et al., Current Drug Targets, 2013, 14(7), 798-816)). Rats were surgically implanted with a jugular vein catheter (sterile polyethylene, o.d. 0.96 mm i.d. 0.58 mm, Microtube Extrusions, Aust.) and allowed to recover overnight. Baseline blood samples (t=0) were taken prior to peptide administration directly from the indwelling jugular vein catheter. Peptide was administered directly via the catheter (i.v route), followed by a 200 μL chaser volume of heparinised saline (20 U/mL) to flush the line. Further blood samples (200 μL/sample) were collected directly from the intravenous catheter at t=1, 5 15, 30, 60, 90 120 as 180 minutes post-administration. Volumes taken were replaced with heparinised saline to avoid hypovolaemia. Blood samples were immediately centrifuged (14 k rpm, 5 min) and plasma supernatant snap frozen on dry ice for later processing. Plasma samples were thawed and diluted 1 in 4 acetonitrile, vortexed, sonicated and centrifuged. Supernatants were transferred to HPLC vials for LCMS analysis.
A Triple Quad Mass-Spectrometer (model 6460, Agilent Technologies) coupled to a Bidentate C18 HPLC column (Cogent, 100 Å, 4 μM) was used to analyse all samples. Separations were carried out using a binary solvent gradient. A Multiple Reaction Monitoring (MRM) protocol was developed for each individual peptide to maximise sensitivity of the Mass-spec and optimise the Limit of Detection (LOD) from a serially diluted standard curve, performed in both acetonitrile solvent and neat rat plasma.
Samples were analysed using MassHunter Software packages, and area under the curve (AUC) was measured for each peak of interest in the MRM, as a direct measure of concentration of compound ions in the sample. AUCs were converted to plasma concentrations (Cp; μg/mL and μM) using the standard curves generated in plasma. Data was analysed using MS Excel software. A two compartment model was adopted to determine the pharmacokinetic properties of each peptide in the rat. The first phase describes the distribution throughout the circulatory compartment, and the second phase describes the elimination/steady state concentration in plasma/tissue. Plasma half-life, volume of distribution and clearance were determined from the steady-state elimination phase.

[5] = target: Kappa opioid receptor (KOR) (Homo sapiens, UniProt P41145); test: cell-based; format: cell-based
Kappa opioid receptor (KOR), sequence (P41145 whole entry): as above

Stability in rat plasma = format: in vitro ADME; conditions: both sexes, Wistar, 37° C., 100 μM peptide
Experimental: Stability in plasma was assessed in rat plasma. Plasma was collected in-house from adult mixed-gender Wistar rats, prepared using 2% EDTA as per standard practice. Peptides were added to the rat plasma samples at 37° C. in a water bath with final concentrations of 100 μM (1:9 peptide in water:plasma). The assay was then carried out in the same manner as the assay in bovine trypsin.

Mu opioid receptor (MOR) = Mu opioid receptor (MOR) (Homo sapiens, UniProt P35372); test: cell-based; format: cell-based
Mu opioid receptor (MOR), sequence (P35372 whole entry): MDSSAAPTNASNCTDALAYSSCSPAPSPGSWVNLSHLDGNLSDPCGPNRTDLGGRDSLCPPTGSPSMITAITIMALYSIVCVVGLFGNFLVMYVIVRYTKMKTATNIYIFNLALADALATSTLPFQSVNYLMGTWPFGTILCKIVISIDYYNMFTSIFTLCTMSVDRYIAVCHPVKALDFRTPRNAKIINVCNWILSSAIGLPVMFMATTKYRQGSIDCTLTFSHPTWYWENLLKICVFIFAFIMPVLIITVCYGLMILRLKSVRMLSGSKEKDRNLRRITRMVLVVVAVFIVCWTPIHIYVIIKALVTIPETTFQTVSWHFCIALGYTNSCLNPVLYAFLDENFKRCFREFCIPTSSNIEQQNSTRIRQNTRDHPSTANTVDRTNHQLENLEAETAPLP

Stability in water = format: physicochemical; conditions: ultra-pure Milli-Q water
Experimental: Stability in water was carried out by incubating each candidate in ultra-pure, Milli-Q water (Millipore Corporation). Again, volumes, times and preparation protocols were exactly as described above in plasma stability method above.

[6] = target: T2, bovine pancreatic trypsin (Bos taurus, UniProt P00760); test: Stability in bovine trypsin; format: in vitro ADME; conditions: bovine pancreatic trypsin 2.5 μg/mL, NH4HCO3 buffer pH 8-8.5, 37° C., 100 μM peptide; for half-life at 100 µM: bovine pancreatic trypsin solution
T2 construct: from tissue; host or cells: bovine pancreas
T2 sequence (P00760 24-246): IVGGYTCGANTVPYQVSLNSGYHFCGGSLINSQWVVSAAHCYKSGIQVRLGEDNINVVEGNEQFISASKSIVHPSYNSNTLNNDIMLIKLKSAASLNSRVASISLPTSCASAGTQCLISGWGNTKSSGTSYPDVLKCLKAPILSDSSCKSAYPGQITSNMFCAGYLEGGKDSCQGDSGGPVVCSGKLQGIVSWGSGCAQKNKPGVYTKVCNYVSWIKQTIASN
Experimental: The stability of the peptides was analysed in typsin, plasma and water. Stability of linear peptides is generally low due to rapid degradation by endogenous peptidases and proteases. While stability in bodily fluids is important, absolute stability may not be prudent or desirable due to potential build-up in vivo leading to adverse side effects, and/or hazards to the environment and recirculation of exceptionally stable compounds in waterways. Thus, compounds that are extremely stable in either plasma or typsin are not generally considered “drug-like”.
Stability in bovine trypsin was analysed for SEQ ID Nos. 2 to 7 and 11 to 17. Peptides were added to trypsin solution (bovine pancreatic trypsin 2.5 μg/mL in NH4HCO3 buffer, pH approximately 8-8.5, 37° C.) in a water bath with final concentrations of 100 μM peptide. A 50 μL sample was taken immediately and precipitated in 150 μL of cold acetonitrile (9:1 acetonitrile:water) This sample became the baseline, or t=0 min sample. The trypsin peptide mixture was immediately returned to the water bath and subsequent 50 μL samples were taken at 5, 10, 15, 30, 60 and 120 min. At each time point, the 50 μL sample was collected and immediately added to cold acetonitrile (ACN). Each sample was vortexed for 30 sec and then centrifuged at room temperature (RT) (13K rpm, 5 min). 150 μL of the supernatant was taken and directly place in a glass HPLC vial for LCMS analysis.

[7] = target: Delta opioid receptor (DOR) (Homo sapiens, UniProt P41143); test: cell-based; format: cell-based
Delta opioid receptor (DOR), sequence (P41143 whole entry): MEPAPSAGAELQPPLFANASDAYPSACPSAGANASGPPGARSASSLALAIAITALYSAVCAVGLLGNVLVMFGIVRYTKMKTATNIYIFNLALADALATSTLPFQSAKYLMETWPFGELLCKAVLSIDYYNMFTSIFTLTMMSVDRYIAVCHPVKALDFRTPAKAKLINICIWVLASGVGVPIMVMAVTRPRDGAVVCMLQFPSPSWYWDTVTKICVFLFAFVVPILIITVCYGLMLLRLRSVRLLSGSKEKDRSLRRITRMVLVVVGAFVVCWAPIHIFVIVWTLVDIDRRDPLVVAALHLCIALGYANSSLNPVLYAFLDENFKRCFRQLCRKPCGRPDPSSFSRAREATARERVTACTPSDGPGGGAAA

| SMILES | bias factor (β) relative to U50488H (KOPr) | pERK1/2 activity (KOPr) | KOR desensitisation (change of cAMP maximal response after pre-treatment) (KOR [2]) | cAMP activity in the presence of naloxone, KOR cells [5] | half-life at 100 µM (Stability in rat plasma) | EC50 (Mu opioid receptor (MOR)) | cAMP assay MOR 1 μM (Mu opioid receptor (MOR)) | cAMP assay MOR 10 μM (Mu opioid receptor (MOR)) | half-life at 100 µM (Stability in water) | cAMP assay KOR 1 μM [5] | cAMP assay KOR 10 μM [5] | EC50 [7] | cAMP assay DOR 1 μM [7] | cAMP assay DOR 10 μM [7] | also measured |
| --- | --- | --- | --- | --- | --- | --- | --- | --- | --- | --- | --- | --- | --- | --- | --- |
| CN1CC[C@]23c4c5ccc(O)c4O[C@H]2[C@@H](O)C=C[C@H]3[C@H]1C5 [Morphine, reference compound] |  |  |  |  |  |  |  |  |  |  |  |  |  |  | paw withdrawal threshold in the contralateral (uninflamed, untreated) paw at 120 minutes compared to baseline [1]: significantly reduced |
| CC(C)C[C@H](NC(=O)[C@H](Cc1ccc([N+](=O)[O-])cc1)NC(=O)CN(C)C(=O)[C@@H](N)Cc1ccc(O)cc1)C(=O)N(C)[C@@H](CCCNC(=N)N)C(=O)N(C)[C@@H](CCCNC(=N)N)C(N)=O [SEQ ID NO. 19, NH2-Tyr-Sar-(4-NO2)Phe-Leu-NMA-NMA-NH2] (H-Y[Sar][Phe(4-NO2)]L[NMeR][NMeR]-NH2) | bias towards cAMP | failed to show any pERK activity | no sign of desensitisation | significantly inhibited |  |  |  |  |  |  |  |  |  |  | Log IC50 (KOR [3]): −5.71; IC50 (KOR [3]; read-out: IC50): 1950 nM; Ki (KOR [3]; read-out: Ki): 180 nM; half-life ([4]; in vivo): 0.398 h; clearance ([4]; in vivo): 5.7 mL/min/kg; Vd ([4]; in vivo): 0.4 L/kg; opioid-like adverse effects (e.g. respiratory depression, sedation) [4]: no sign of opioid-like adverse effects; Area under the curve (AUC) efficacy compared to U50488H [1]: significantly better efficacy than U50488H; Efficacy Index (Ie) relative to morphine [1]: statistically significantly greater Ie over morphine; EC50 ([5]; read-out: Activity (EC50, nM) KOR): 31.1 nM |
| CC(C)C[C@H](NC(=O)[C@H](Cc1ccccc1)NC(=O)CN(C)C(=O)[C@@H](N)Cc1ccc(O)cc1)C(=O)N[C@@H](CCCNC(=N)N)C(=O)N[C@@H](CCCNC(=N)N)C(N)=O [SEQ ID NO. 2, NH2-Tyr-Sar-Phe-Leu-Arg-Arg-NH2] (H-Y[Sar]FLRR-NH2) |  |  |  |  | 1.61 h | 6700 nM | −2.5 | 12.41 | > 16.7 h | 21.65 | 32.41 | > 10000 nM | −0.47 | 21.96 | half-life at 100 µM [6]: 0.03 h |
| CC(C)C[C@H](NC(=O)[C@H](Cc1ccc([N+](=O)[O-])cc1)NC(=O)CN(C)C(=O)[C@@H](N)Cc1ccc(O)cc1)C(=O)N[C@@H](CCCNC(=N)N)C(=O)N[C@H](CCCNC(=N)N)C(N)=O [SEQ ID NO. 4, NH2-Tyr-Sar-(4-NO2)Phe-Leu-Arg-DArg-NH2] (H-Y[Sar][Phe(4-NO2)]LR[dR]-NH2) | bias towards cAMP | failed to show any pERK activity | no sign of desensitisation | significantly inhibited | 1.18 h |  | 0.17 | 2.52 |  | 34.93 | 40.29 |  | −0.75 | 2.04 | Half Life Trypsin [6]: 0.257 h; IC50 (KOR [3]; read-out: IC50): 30.2 nM; Ki (KOR [3]; read-out: Ki): 2.8 nM; Area under the curve (AUC) efficacy compared to U50488H [1]: significantly better efficacy than U50488H; EC50 [5]: 8.4 nM |
| CC(C)C[C@@H](NC(=O)[C@@H](Cc1ccccc1)NC(=O)[C@H](N)Cc1ccccc1)C(=O)N[C@H](CCCCN)C(=O)N1CCC(N)(C(=O)O)CC1 [SEQ ID NO. 35, DPhe-DPhe-DLeu-DLys-Cap-CO2H, reference compound] | no bias either way | time and concentration dependent pERK expression | significant reduction maximal effect |  | 10.8 h | > 10000 nM | 0.37 | 8.07 | > 16.7 h | 25.93 | 34.61 | > 10000 nM | −5.72 | 3.27 | half-life at 100 µM [6]: 17.6 h |
| CC(C)C[C@H](NC(=O)[C@H](Cc1ccc(Cl)cc1)NC(=O)CN(C)C(=O)[C@@H](N)Cc1ccc(O)cc1)C(=O)N[C@@H](CCCNC(=N)N)C(=O)N[C@H](CCCNC(=N)N)C(=O)NCCCCCCCC(N)=O [SEQ ID NO. 24, NH2-Tyr-Sar-(4-Cl)Phe-Leu-Arg-DArg-C7H14-CONH2] (H-Y[Sar][Phe(4-Cl)]LR[dR][Aoc]-NH2) | bias towards cAMP | some influence over pERK induction | modest desensitisation | significantly inhibited |  | > 10000 nM |  |  |  |  |  | > 10000 nM |  |  | IC50 (KOR [3]): 72.6 nM; Ki (KOR [3]): 6.7 nM; half-life ([4]; plasma): 0.213 h; clearance ([4]; plasma): 26.3 mL/min/kg; Vd ([4]; plasma): 1.7 L/kg; opioid-like adverse effects (e.g. respiratory depression, sedation) [4]: No adverse effects were observed; Efficacy Index (Ie) relative to morphine [1]: statistically significantly greater Ie over morphine; EC50 [5]: 3.87 nM |
| CC(C)C[C@H](NC(=O)[C@H](Cc1ccccc1)NC(=O)CNC(=O)CNC(=O)[C@@H](N)Cc1ccc(O)cc1)C(=O)N[C@@H](CCCNC(=N)N)C(=O)N[C@@H](CCCNC(=N)N)C(=O)O [SEQ ID NO. 38, Tyr-Gly-Gly-Phe-Leu-Arg-Arg, reference compound] |  |  | did not show any desensitisation |  |  |  |  |  | > 16.7 h |  |  |  |  |  | EC50 (Mu opioid receptor (MOR); read-out: Activity (EC50, nM) MOR): 3740 nM; EC50 ([7]; read-out: Activity (EC50, nM) DOR): 870 nM |
